Results as given in patent publication US10653779B2, “Formulations with reduced oxidation” (Genentech, Inc., priority 2013, dated 2020).

Legend:
[1] = system: mAb1; assay: Ambient light exposure of 50 mg/mL mAb1 formulations containing L-Trp (Amplex assay, RP-HPLC); type: physicochemical, human
Description: While confirming the photosensitivity of free L-Trp under ICH light conditions, the effect of ambient light that was typically seen in laboratories was studied. Measurements using a DLM1 digital light meter in various labs indicated an average of 300 lux on a lab benchtop (with white fluorescent lighting), an average of 3000 lux in a laminar flow hood (with white fluorescent lighting) and about 10000 lux for a windowsill exposed to southeast sunlight. […] Peroxide production increased with both luminosity (300, 3000, and 10000 lux) and time (1, 3, and 7 days). […] These levels of light exposure and time were determined to be pharmaceutically relevant for drug substance handling under ambient light and temperature before fill/finish operations and potentially while inspecting drug product vials.

[2] = Cyclic voltammetry (CV) screening of oxidation potentials; type: physicochemical; details: glassy carbon working electrode, 0.2 M lithium perchlorate
Protocol: The oxidation/reduction characteristics of the compounds were investigated. Several compounds, including L-Trp and derivatives, were evaluated for the protection of Trp oxidation in proteins using cyclic voltammetry (CV) and rank ordered based on their oxidation potentials (Table 2). Specifically, the candidate antioxidants were dissolved in deionized water and then added to a 0.2 M lithium perchlorate electrolyte solution. […] Solutions were scanned from −0.10 V to +1.50 V at a scan rate of either 100 or 500 mV/sec. The analytical cell was purged for four minutes with nitrogen before scanning of each antioxidant solution. The input was a linear scan of the potential of a working electrode, and the output was measurement of the resulting current. […] Redox reactions were characterized by sharp increases or decreases in current (peaks). The potential at which an oxidation reaction occurred was referred to as the anodic peak potential (or oxidation potential), and the potential at which a reduction occurred was referred to as is the cathodic peak (or reduction) potential.

[3] = H2O2 generation by free L-Trp upon light exposure for 3 hours (Amplex assay); type: physicochemical
Protocol: It was previously reported that L-Trp produced H2O2 via superoxide ion and in a sub-stoichiometric fashion while antibodies under similar conditions were producing catalytic amounts (Wentworth et al., Science 293(5536):1806-11 (2001); McCormick et al., Journal of the American Chemical Society 100:312-313 (1978)). To test the susceptibility of free L-Trp under pharmaceutically relevant conditions, such as under both ICH and ambient light conditions, formulations comprising 0.32 mM to 7.5 mM of L-Trp were exposed for 3 hours at 250 W/m^2 UV light and about 150 k lux visible light. Samples were taken and analyzed immediately via the Amplex assay to detect the amount of H2O2 generated under these conditions. […] When L-Trp was incubated with a combination of 50 mM NaN3 and 150 U superoxide dismutase (SOD) or SOD alone, significant amounts of H2O2 were still detected in the samples not containing NaN3.

[4] = system: mAb1; assay: mAb1 light stress study, 16 hours; Fab/Fc oxidation by RP-HPLC; type: physicochemical, human; details: 16 hours of light at 250 W/m^2
Protocol: The fragments were reduced with DTT, and then separated and identified via Liquid Chromatography-Mass Spectrometry (LC-MS). […] Comparison of area integrated under the oxidized and native peaks was used to quantify HC Fab and Fc oxidation. […] By using the papain digest RP-HPLC method in the present study it was possible to investigate Trp residue oxidation by quantifying HC Fab oxidation, and Met residue oxidation by quantifying HC Fc oxidation.
Antioxidants were added at 1 mM. Glass vials containing these formulations were exposed to 250 W/m^2 light in an Atlas SunTest CPS+ Xenon Test Instrument (Chicago, Ill.). Control vials were wrapped in aluminum foil and treated similarly. After light exposure, solutions were prepared for analysis by reverse-phase HPLC as described above.

[5] = Photosensitivity screening: H2O2 formation by antioxidant candidates upon light exposure (Amplex Ultra Red Assay); type: physicochemical
Protocol: As a screening tool, antioxidant candidates were exposed to light for four hours at 250 W/m^2 and the resulting H2O2 formation was quantified by the Amplexassay. Specifically, antioxidants were prepared to 1 mM in 20 mM histidine acetate buffer at pH 5.5. The 1 mM antioxidant solutions were aliquoted into glass vials (2 mL/glass vial) and exposed to four hours of light at 250 W/m^2 in an Atlas SunTest CPS+ Xenon Test Instrument (Chicago, Ill.). Total UV dose was 90 watt-hours/square meter and total visible dose was 0.22 million lux hours over the 4-hour period. Control vials were wrapped in aluminum foil and treated similarly. The amount of hydrogen peroxide generated after exposure to light was measured using the Amplex® Ultra Red Assay (Invitrogen, Carlsbad, Calif.) following the manufacturer's recommended procedure. On addition of horseradish peroxidase (HRP), the dye reacted 1:1 stoichiometrically with H2O2, resulting in the production of fluorescent oxidation product resorufin. In this study, fluorescence readings were obtained using a Spectra Max M2 Micro-plate Reader (Molecular Devices, Sunnyvale, Calif.) with excitation and emission set at 560 nm and 590 nm, respectively. Final H2O2 concentrations were determined using a standard curve ranging from 0 μm to 20 μm. […]

[6] = system: mAb1; assay: mAb1 light stress, eight hours, with L-Trp and L-Met; Fab/Fc oxidation by papain digest RP-HPLC; type: physicochemical, human; details: 5 mg/mL mAb1, 8 h light at 250 W/m^2, L-Trp at 1 mM
Protocol: L-tryptophan (L-Trp), an antioxidant used in protein formulations, has been recently shown to be photosensitive (Igarashi et al., Anal Sci 23(8):943-8 (2007)) and to have the ability to produce H2O2 upon light exposure. […] Control vials were wrapped in aluminum foil and treated similarly. After light exposure, solutions were prepared for analysis by reverse-phase HPLC. […] Following incubation, 900 μL of the solution was combined with 100 μL of 1 M dithiothreitol (DTT) and incubated for another thirty minutes at 37° C. Samples were then run on an Agilent, Inc. 1100/1200 HPLC system (Santa Clara, Calif.) equipped with UV detection at 280 nm in conjunction with a Varian, Inc. Pursuit 3 μm, 2 mm ID×250 mm diphenyl column (Palo Alto, Calif.). Mobile Phase A was 0.1% TFA in water. Mobile Phase B was 0.1% TFA in acetonitrile. The mobile phase gradient increased linearly from 34% B at 0 minutes to 43% B at 50.0 minutes, then to 95% B at 50.1 minutes. The gradient remained at 95% B until 60.1 minutes, and then decreased linearly from 95% B to 34% B between 60.1 and 60.2 minutes. The gradient remained at 34% B until the end of the cycle at 80.2 minutes. The column temperature was 65° C., total flow rate was 0.2 mL/min, and injection volume of each sample was 6 μL. Chromatograms were then integrated for quantification of oxidation.

For N[C@@H](Cc1c[nH]c2ccccc12)C(=O)O [L-Trp, L-Tryptophan], the “Heavy chain Fab oxidation (W53) with increased luminosity (in words)” value ([1]; 50 mg/mL mAb1 with 3.2 mM L-Trp, 10 days ambient light) was “increased heavy chain Fab oxidation”, the “% Fc oxidation in mAb1” value ([1]; 50 mg/mL mAb1 with 3.2 mM L-Trp, ambient light 300 lux) was 5% and the “% Fc oxidation in mAb1” value ([1]; 50 mg/mL mAb1 with 3.2 mM L-Trp, ambient light 10000 lux) was 40%. For the same molecule, the “Hydrogen peroxide produced under ambient light” value ([1]; L-Trp in formulation buffers containing 50 mg/mL mAb1, 300, 3000, 10000 lux, 1, 3, 7 days) was “in the micromolar range”, the “Oxidation Potential (anodic peak)” value [2] was 0.938 V vs Ag/AgCl and the “H2O2 generated by free L-Trp upon light exposure” value ([3]; 0.32 mM to 7.5 mM L-Trp, 3 hours at 250 W/m^2 UV light and about 150 k lux visible light) was “large quantity of H2O2”. For the same molecule, the “H2O2 generation by L-Trp in the presence of sodium azide” value ([3]; 50 mM sodium azide, 3 hours light) was “reduced greatly”, the “Fc oxidation relative to the control level” value ([4]; 1 mM L-Trp) was 7 times and the “Fab oxidation increase over the control level (mAb1 Ref Mat)” value ([4]; excipient 1 mM, label mAb1 = No Excipient) was “over 11 fold”. The “(H2O2 produced by Compound)/(H2O2 produced by L-Trp)” value ([5]; 1 mM in 20 mM histidine acetate pH 5.5, four hours of light at 250 W/m^2) was 1, the “H2O2 production upon light exposure compared to L-Trp (in words)” value ([5]; 1 mM, 20 mM L-His-acetate pH 5.5, 4 h light, 0.22 million lux hours) was “produced more H2O2” and the “Fc oxidation of mAb1” value [6] was “over 20%”. For the same molecule, the “Fab oxidation of mAb1” value ([6]; label mAb1 = No Excipient) was roughly 9%.
